Measurements: patent US20240415152A1, “METHODS FOR IMPROVING HEALTH OF FISH, USE OF ZINC OXIDE PARTICLES FOR THE PREPARATION OF FISH FEED, METHODS FOR PREPARING FISH FEED FOR FISH, AND FISH FEED THEREOF” (City University of Hong Kong, priority 2023, published 2024)

Legend:
Format in all cases: in vivo, Trachinotus ovatus
Conditions in all cases: dietary 60 mg/kg, 5 weeks
golden pompano = assay: Growth performance (final weight, weight gain rate) after 5-week dietary exposure
Procedure: Fish exposure experiments were conducted in strict accordance with the Chinese Guidelines for Ethical Review of Laboratory Animal Welfare (GBIT 35892-2018). Three groups of golden pompanos (initial body wet weight of about 6 g) were randomly chosen and split after 14 days of acclimatization. There were three replicated net cages in Mirs Bay (Nanao, Shenzhen, China) for each group, with 30 fish in each duplicate. Each day, the experimental meals were given two-time (8:00 h, and 16:00 h) to golden pompano until satiation during the 5-week exposure experiment. The water was 29-32° C., dissolved oxygen 6.8-7.2 mg/L, and salinity 28-30‰ during dietary exposure.
After dietary exposure, all fish were starved for 24 h, and the ice-water was used to anesthetize fish from different groups. To avoid sample contamination during sampling, we first thoroughly disinfected the sampling table with 75% alcohol, and then spread a disposable tablecloth and disinfected it twice. All metal dissection tools were high-temperature sterilization. Each treatment group shared one set of dissection tools. After each set of samples, the disposable tablecloth was replaced and thoroughly sterilized for the following group sampling. The tubes (sterile and enzyme-free) for the temporary storage of samples were purchased from Corning. […] Fish's weights were measured immediately. […]

[1] = system: intestinal microorganism of golden pompano; assay: Bacterial 16S ribosomal RNA gene sequencing of intestine content (ASV-based)
Text: DNA samples from the intestine content (only mucosa without the muscularis) were isolated using the MP Fast® SPIN DNA Kit. Each replicated sample contained 6 fish, resulting in 18 fish per treatment group. DNA extracts were amplified using primers (338F_806R) for the V3-V4 region of the 16S rRNA gene. Procedures for the DNA extracts and PCR amplification and then illuminma Miseq sequencing are described as follows.
DNA extraction and PCR amplification: The quality of DNA extraction was determined using 1% agarose gel electrophoresis, and DNA concentration and purity were determined using NanoDrop2000. […] The 16S rRNA gene V3-V4 variable region was amplified by PCR using 338F (5′-[…]-3′) and 806R (5′-[…]-3′). The amplification procedure was as follows: 95° C. pre-denaturation for 3 min, 27 cycles (95° C. denaturation for 30 s, 55° C. annealing for 30 s, 72° C. extension for 30 s), followed by 72° C. stable extension for 10 min and finally storage at 4° C. (PCR instrument: ABI GeneAmp® Model 9700). FastPfu buffer 4 μL, 2.5 mM dNTPs 2 μL, upstream primer (5 uM) 0.8 μL, downstream primer (5 uM) 0.8 μL, TransStart FastPfu DNA polymerase 0.4 μL, template DNA 10 ng, ddH2O make up to 20 μL. 3 replicates for each sample.
Illumina Miseq sequencing: PCR products from the same sample were mixed and recovered using a 2% agarose gel. Fluorometer (Promega, USA) was used to quantify the recovered products. Library construction was performed using NEXTflex™ Rapid DNA-Seq Kit (Bioo Scientific, USA): (1) splice linkage; (2) removal of splice self-linked fragments using magnetic bead screening; (3) enrichment of library template using PCR amplification; (4) recovery of PCR products by magnetic beads to obtain the final library. Sequencing was performed using Illumina's Miseq PE300 platform (Shanghai Meiji Biomedical Technology Co., Ltd.).
For Illumina Miseq PE300, products were pooled by sequencing equimolar and paired-end sequences (2×300) to obtain the raw data. Please see description for raw data stitching and optimization. After the PE reads obtained by MiSeq sequencing were split, the double-ended reads were first quality controlled and filtered according to the sequencing quality. Meanwhile, according to the overlapping relationship between double-ended reads, the optimized data after quality control splicing were obtained. […]
Raw data stitching and optimization: Fastp (version 0.20.0) software was used for quality control of the original sequencing sequence, and flash was used (version 1.2.7) software for splicing: (1) filter the bases with a mass value of less than 20 at the tail of reads and set a 50 bp window. […]

[2] = system: intestinal tissue of fish; assay: In situ spatial quantitative analysis of intestinal tissue (HE sections, tissue cytometry)
Procedure: After dietary exposure, all fish were starved for 24 h, and the ice-water was used to anesthetize fish from different groups. To avoid sample contamination during sampling, we first thoroughly disinfected the sampling table with 75% alcohol, and then spread a disposable tablecloth and disinfected it twice. All metal dissection tools were high-temperature sterilization. Each treatment group shared one set of dissection tools. After each set of samples, the disposable tablecloth was replaced and thoroughly sterilized for the following group sampling. The tubes (sterile and enzyme-free) for the temporary storage of samples were purchased from Corning. Inc. The alcohol lamp was kept on throughout the sampling process. Fish's weights were measured immediately. All individual fish per net were swabbed using 75% alcohol. After that, we used a 1 mL disposable syringe to collect the blood from the caudal vertebra of the fish. The blood was quickly drawn into the pre-cooled 1.5 mL-centrifuge tubes (RNA-free tube). Then, all the blood samples were put in the 4° C. refrigerator for 24 h, and then centrifuged (4° C., 3000 r/min, 10 min) to obtain the serum samples for biochemical analysis. The blood-drawn fish were quickly dissected to obtain the gill, intestine content, intestine, liver, and muscle. Each replicated sample contained 6 fish, resulting in 18 fish per treatment group (with 3 replicates). All these samples were immediately frozen in liquid nitrogen and transferred to −80° C. refrigerator using dry ice, except the intestine for histomorphological study. For histomorphological analysis of the intestine, the tissues (3 fish per treatment group) were firstly dissected in the medical ice sheet. After 0.9% NaCl solution quick washing, the intestine tissues were fixed in the 4% paraformaldehyde (BL539A, Biosharp) for 48 h. The fixed intestinal samples were carefully transferred to 75% alcohol for long-term preservation.
The fixed intestine tissues were removed from the fixed liquid and then carefully trimmed with the ventilation cupboard. The trimmed tissues with different labels were placed in the dehydration box in the dehydrator (Donatello, DIAPATH) to dehydrate with gradient alcohol. The process was as follows: 75% alcohol 4 h, 85% alcohol 2 h, 90% alcohol 2 h, 95% alcohol 1 h, anhydrous ethanol I 30 min, anhydrous ethanol II 30 min, alcohol benzene 5˜10 min, xylene II 5˜10 min, 65° C. melting paraffin I1 h, 65° C. melting paraffin II 1 h, 65° C. melting paraffin Ill 1 h. The tissues were removed from the dehydration box and placed in the embedding frame of the embedding machine (JB-P5, Wuhan Junjie Electronics Co., Ltd), subsequently the frozen platform at −20° C. was used to cool the dewatering box. The solidified wax block was removed from the embedded frame and placed on the pathology slicer (RM2016, Shanghai Leica Instrument Co., Ltd) to obtain 4 μm slice thickness. The tissues were then flattened when the slice floated on the 40° C. warm water of the spreading machine. […]
In situ spatial quantitative identification of HE sections were imaged and analyzed by tissue cytometry. Briefly, the images were obtained on the TissueFAXS quantitative imaging system (TissueGnostics, Vienna, Austria). […] The scanned files were imported into the strataquest professional organization single-cell quantitative analysis system (v.7.0.1.176) for image processing and analysis. […]

O=S(=O)([O-])[O-].[Zn+2] [ZnSO4, zinc sulphate]
WGR (weight gain rate) (golden pompano): 268.78%
final weight (golden pompano; initial body wet weight about 6 g): 22.30 g
genus-level differential microorganisms in fish intestine [1]: significantly enriched Photobacterium and Mycoplasma
main intestinal microorganisms at phylum level [1]: Proteobacteria, Firmicutes and Cyanobacteria
unique reads of microorganisms at ASV level (Venn diagram) [1]: 808
unique reads of microorganisms at genus level (Venn diagram) [1]: 137
intestinal villus area [2]: reduced
villus height distribution (changes in the fish villi intestine) [2]: 0.05-0.33 μm
area of basal layer of fish intestine ([2]; compared with the other groups): reduced
total number of goblet cells ([2]; compared with the other groups): reduced
villus/crypt ratio (intestinal/crypt ratio) ([2]; compared with the other groups): reduced
